Test results reported in ChEMBL document CHEMBL1201862, “PubChem BioAssay data set” (2004).
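In this assay, cells in 96-well plates receive the compound at five concentrations for 48 hours. Endpoints are linearly interpolated between the surrounding concentrations. The concentration for 50% growth inhibition is given as GI50.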 The source made the active and inactive calls. Rule as the data show it: active = GI50 up to about 1.1 µM and inactive = higher. Where a SMILES comes first, the peptide text is derived from it. [ ]: non-standard residue; d: D form. The star is where a group is joined. NMeAc5c = CNC1(C(=O)O)CCCC1; Boc = CC(C)(C)OC(=O)*; OBn = c1ccc(CO*)cc1

Tests used:
Assay in all cases: inhibition of tumour cell growth, NCI panel, 48 h
UACC-62 = test system: UACC-62
NCI-H522 = test system: NCI-H522
HCT-116 = test system: HCT-116
EKVX = test system: EKVX
786-0 = test system: 786-0
NCI-H460 = test system: NCI-H460
MCF7 = test system: MCF7
SW-620 = test system: SW-620
MDA-MB-231 = test system: MDA-MB-231
K562 = test system: K562
TK-10 = test system: TK-10
UACC-257 = test system: UACC-257
U-251 = test system: U-251
OVCAR-4 = test system: OVCAR-4
SNB-75 = test system: SNB-75
MDA-MB-435 = test system: MDA-MB-435
COLO 205 = test system: COLO 205
A498 = test system: A498
HL-60 = test system: HL-60
RXF 393 = test system: RXF 393

Measured: GI50

CN1CC(c2ccccc2)=CC2=C1C=CC(=N)/C2=N\N
inactive: UACC-62 > 100 µM | NCI-H522 > 100 µM | HCT-116 > 100 µM | EKVX > 100 µM | 786-0 > 100 µM | NCI-H460 > 100 µM | MCF7 > 100 µM | SW-620 > 100 µM | MDA-MB-231 > 100 µM | K562 > 100 µM | TK-10 > 100 µM | UACC-257 > 100 µM | U-251 > 100 µM | OVCAR-4 > 100 µM | SNB-75 20.9 µM | MDA-MB-435 > 100 µM

O=C(O)CCCOc1cc(-c2ccccc2F)nc2cc3c(cc12)OCO3
inactive: UACC-62 6.17 µM | EKVX > 100 µM | 786-0 6.38 µM | MCF7 5.35 µM | SW-620 6.07 µM | MDA-MB-231 31.3 µM | TK-10 > 100 µM | U-251 5.46 µM | COLO 205 3.47 µM | OVCAR-4 45.9 µM | SNB-75 6.56 µM | MDA-MB-435 3.18 µM

O=c1[nH]cnc2cccc(Cl)c12
inactive: UACC-62 > 100 µM | NCI-H522 > 100 µM | A498 > 100 µM | HCT-116 > 100 µM | EKVX > 100 µM | 786-0 > 100 µM | NCI-H460 > 100 µM | MCF7 > 100 µM | SW-620 > 100 µM | MDA-MB-231 > 100 µM | K562 > 100 µM | TK-10 > 100 µM | UACC-257 > 100 µM | U-251 > 100 µM | COLO 205 > 100 µM | OVCAR-4 > 100 µM | HL-60 > 100 µM | SNB-75 65.2 µM | RXF 393 > 100 µM

N=c1nc(N)nc(N)n1-c1ccc(S(N)(=O)=O)cc1
inactive: UACC-62 > 100 µM | NCI-H522 > 100 µM | A498 > 100 µM | HCT-116 > 100 µM | EKVX > 100 µM | 786-0 > 100 µM | NCI-H460 > 100 µM | SW-620 > 100 µM | MDA-MB-231 > 100 µM | K562 > 100 µM | TK-10 > 100 µM | UACC-257 > 100 µM | U-251 > 100 µM | OVCAR-4 > 100 µM | HL-60 > 100 µM | MDA-MB-435 > 100 µM | RXF 393 > 100 µM

CCSC1=N/C(=C\c2ccccc2O)C(Nc2ccc(C)cc2)=N1
inactive: UACC-62 > 100 µM | NCI-H522 20.4 µM | A498 > 100 µM | HCT-116 39.1 µM | EKVX > 100 µM | 786-0 91.6 µM | NCI-H460 38.5 µM | SW-620 50.6 µM | MDA-MB-231 > 100 µM | K562 28.2 µM | TK-10 > 100 µM | UACC-257 99.1 µM | U-251 41.9 µM | COLO 205 > 100 µM | HL-60 39 µM | SNB-75 46.1 µM | MDA-MB-435 34.4 µM | RXF 393 75.2 µM

COC(=O)/C=C(\C)CC(O)/C=C(\C)CCC=C(C)C (centres undefined)
inactive: UACC-62 40.7 µM | A498 34.7 µM | HCT-116 40.5 µM | EKVX 46.1 µM | 786-0 80.5 µM | NCI-H460 49.7 µM | MCF7 31.4 µM | SW-620 60.8 µM | MDA-MB-231 > 100 µM | K562 32.1 µM | TK-10 55.8 µM | UACC-257 47.4 µM | U-251 42.7 µM | COLO 205 41.2 µM | OVCAR-4 44 µM | HL-60 17.4 µM | SNB-75 9.44 µM | RXF 393 31.7 µM

CC(C)(C)OC(=O)N1C(=O)C2CCCC21 (centres undefined)
inactive: UACC-62 > 100 µM | A498 > 100 µM | HCT-116 > 100 µM | 786-0 > 100 µM | NCI-H460 > 100 µM | SW-620 > 100 µM | MDA-MB-231 > 100 µM | UACC-257 > 100 µM | U-251 > 100 µM | COLO 205 > 100 µM | OVCAR-4 > 100 µM | HL-60 > 100 µM | SNB-75 > 100 µM | MDA-MB-435 > 100 µM | RXF 393 > 100 µM

COc1cc(Oc2nc3cc(F)c(F)cc3nc2-c2ccccc2)cc(OC)c1OC
inactive: UACC-62 25.8 µM | NCI-H522 13.9 µM | A498 > 100 µM | HCT-116 > 100 µM | EKVX 97.7 µM | 786-0 30.5 µM | NCI-H460 63.8 µM | MCF7 29.5 µM | SW-620 > 100 µM | TK-10 68.2 µM | UACC-257 > 100 µM | U-251 40.3 µM | COLO 205 > 100 µM | OVCAR-4 79.3 µM | HL-60 > 100 µM | SNB-75 20.4 µM | MDA-MB-435 61.9 µM | RXF 393 > 100 µM

NC1CCCCC1.O=C(CP(=O)(O)O)NC(CC(=O)OCc1ccccc1)C(=O)OCc1ccccc1 (centres undefined)
inactive: UACC-62 > 100 µM | NCI-H522 > 100 µM | A498 > 100 µM | HCT-116 > 100 µM | EKVX > 100 µM | 786-0 > 100 µM | NCI-H460 > 100 µM | SW-620 > 100 µM | MDA-MB-231 > 100 µM | K562 > 100 µM | UACC-257 > 100 µM | U-251 > 100 µM | COLO 205 > 100 µM | OVCAR-4 > 100 µM | HL-60 > 100 µM | SNB-75 4.1 µM | MDA-MB-435 > 100 µM | RXF 393 > 100 µM

NC(=O)c1ncn(C2C=CC(CP(=O)(O)O)C2)c1N (centres undefined)
inactive: UACC-62 > 100 µM | HCT-116 > 100 µM | EKVX > 100 µM | 786-0 > 100 µM | NCI-H460 > 100 µM | MCF7 > 100 µM | SW-620 > 100 µM | MDA-MB-231 > 100 µM | K562 > 100 µM | TK-10 > 100 µM | UACC-257 > 100 µM | U-251 > 100 µM | COLO 205 > 100 µM | OVCAR-4 > 100 µM | HL-60 > 100 µM | SNB-75 > 100 µM | MDA-MB-435 > 100 µM | RXF 393 > 100 µM

CC(C)Oc1cccc(N2C(NCc3c[nH]c4ccccc34)=Nc3ccncc3S2(=O)=O)c1
inactive: UACC-62 11.9 µM | NCI-H522 17.4 µM | A498 28.8 µM | HCT-116 27.7 µM | EKVX 23.1 µM | 786-0 30.3 µM | NCI-H460 18.5 µM | MCF7 18.4 µM | SW-620 33.7 µM | K562 21.1 µM | TK-10 25.2 µM | UACC-257 31.3 µM | U-251 29.4 µM | COLO 205 11.2 µM | OVCAR-4 34.4 µM | HL-60 21.5 µM | SNB-75 18.3 µM | MDA-MB-435 32.4 µM | RXF 393 40.3 µM

CCCC(=O)NC(Nc1ccc(S(=O)(=O)Nc2nc(C)cc(C)n2)cc1)(C(F)(F)F)C(F)(F)F
inactive: UACC-62 > 100 µM | NCI-H522 > 100 µM | A498 > 100 µM | HCT-116 > 100 µM | EKVX > 100 µM | 786-0 > 100 µM | NCI-H460 > 100 µM | SW-620 > 100 µM | MDA-MB-231 > 100 µM | K562 > 100 µM | TK-10 > 100 µM | UACC-257 > 100 µM | U-251 > 100 µM | COLO 205 > 100 µM | OVCAR-4 > 100 µM | HL-60 > 100 µM | SNB-75 > 100 µM | MDA-MB-435 > 100 µM | RXF 393 > 100 µM

C[n+]1c2ccccc2c(C(=O)Nc2ccc(S(=O)(=O)Nc3ncccn3)cc2)c2ccccc21
inactive: UACC-62 > 100 µM | HCT-116 72.6 µM | EKVX 80.7 µM | 786-0 > 100 µM | NCI-H460 > 100 µM | MCF7 > 100 µM | SW-620 > 100 µM | MDA-MB-231 71.9 µM | K562 97.5 µM | TK-10 > 100 µM | UACC-257 > 100 µM | U-251 > 100 µM | COLO 205 > 100 µM | OVCAR-4 > 100 µM | SNB-75 72.8 µM | MDA-MB-435 42.3 µM

COc1ccc(/C=C2\CN(C)Cc3c2nc(O)c(C#N)c3-c2ccc(OC)cc2)cc1
inactive: UACC-62 > 100 µM | NCI-H522 48.8 µM | HCT-116 60.7 µM | EKVX > 100 µM | 786-0 18.2 µM | NCI-H460 29.6 µM | MCF7 16.5 µM | SW-620 > 100 µM | MDA-MB-231 > 100 µM | K562 57.5 µM | TK-10 43.4 µM | UACC-257 > 100 µM | U-251 80.2 µM | COLO 205 66.1 µM | OVCAR-4 37.1 µM | HL-60 13.3 µM | MDA-MB-435 > 100 µM | RXF 393 24.3 µM

CN(C(=O)C(Cc1ccccc1)NC(=O)OC(C)(C)C)C1(C(=O)NC(Cc2ccccc2)C(=O)OCc2ccccc2)CCCC1 (stereo not drawn) (Boc-Phe-[NMeAc5c]-Phe-OBn; configuration not given here)
inactive: UACC-62 24.5 µM | HCT-116 30.6 µM | EKVX 59.6 µM | 786-0 40.9 µM | NCI-H460 23.6 µM | MCF7 32.1 µM | SW-620 39.7 µM | MDA-MB-231 23.4 µM | K562 29.8 µM | TK-10 34.8 µM | UACC-257 57.3 µM | U-251 20.9 µM | COLO 205 22.3 µM | OVCAR-4 > 100 µM | HL-60 24.9 µM | SNB-75 > 100 µM | MDA-MB-435 37.3 µM | RXF 393 44.7 µM
